What all share (assay): NCI tumour cell line growth inhibition, 48 h
The test system of test [1] is RPMI-8226.
In test [2] the test system is HOP-62.
For test [3], the system named is UO-31.
In test [4] the test system is SK-OV-3.
In test [5] the test system is CCRF-CEM.
The subject of test [6] is EKVX.
Test [7] deals with SR.
Test [8] relates to HCT-15.
Test [9] concerns HCT-116.
Test [10] concerns NCI-H226.
Test [11] relates to NCI-H23.
Test [12] relates to A498.
Test [13] relates to NCI-H460.
In test [14] the test system is ACHN.
Test [15] relates to SNB-75.
Test [16] deals with TK-10.
The test system of test [17] is KM12.
The subject of test [18] is SF-295.
The subject of test [19] is MDA-MB-435.

Consider eleven molecules from ChEMBL document CHEMBL1201862, “PubChem BioAssay data set” (2004).

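Grown in 96-well plates, cells were treated for 48 hours with each compound at five concentrations. Insufficient inhibition: endpoint recorded as highest concentration tested. GI50 is the concentration that inhibits growth by half.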 Active and inactive are the calls of the source. Rule as the data show it: active = GI50 up to about 1.1 µM and inactive = higher. Where only a bound is given, the exact number is not on record here.

In the case of `C/C(=N\NS(=O)(=O)c1ccc(C)cc1)C(CN1CCOCC1)C(c1ccccc1)c1c(O)c2ccccc2oc1=O` (stereo unspecified), the GI50 was 35.2 µM (inactive) in test [1]; > 100 µM (inactive) in test [2]; 72.3 µM (inactive) in test [3]; > 100 µM (inactive) in test [4]; 37.5 µM (inactive) in test [5]; > 100 µM (inactive) in [6]. The GI50 in test [7] is 19.7 µM (inactive); in test [8], above 100 µM; in test [9], > 100 µM (inactive); in [10] it was > 100 µM (inactive); in test [11], > 100 µM (inactive); in test [12] it was > 100 µM (inactive). The GI50 is > 100 µM (inactive) in test [13]; > 100 µM (inactive) in test [14]; > 100 µM (inactive) in test [15]; > 100 µM (inactive) in [16]; > 100 µM (inactive) in test [17]; 83 µM (inactive) in test [18].

For `Cc1ccc2nc(-c3ccc(N)c(Br)c3)sc2c1`, the GI50 in test [19] was 5.4 µM (inactive); in [2], 13.5 µM (inactive); in test [3] it was 5.27 µM (inactive); in test [4], 22.5 µM (inactive); in [5], 3.37 µM (inactive); in test [6], 15.2 µM (inactive). Further, the GI50 was 11 µM (inactive) in [7]; 7.01 µM in test [8]; 31.4 µM (inactive) in [9]; 17.5 µM (inactive) in [10]; 22.2 µM (inactive) in [11]; > 100 µM (inactive) in test [12]. Also, the GI50 was 5.6 µM (inactive) in [13], 36.3 µM (inactive) in test [14], 7.41 µM (inactive) in [17] and 34.8 µM (inactive) in test [18].

On to `COc1cccc(-c2cc(C(=O)Nc3ccc(Cl)cc3)nc(N)n2)c1`, for which the GI50 in test [1] is 53.1 µM (inactive); in [2], > 100 µM (inactive); in [3], > 100 µM (inactive); in test [4], 61 µM (inactive); in test [5] it was > 100 µM (inactive); in [6], > 100 µM (inactive). The GI50 in test [7] was 45.1 µM (inactive); in test [8] it was 41.5 µM; in [9], 42.9 µM (inactive); in test [10] it was > 100 µM (inactive); in [11], 75 µM (inactive); in test [12], 61.9 µM (inactive). Besides, the GI50 was 36.8 µM (inactive) in test [13]; > 100 µM (inactive) in test [14]; 21.4 µM (inactive) in [15]; > 100 µM (inactive) in test [16]; 43.7 µM (inactive) in test [17]; 87.9 µM (inactive) in test [18].

Turning to `Clc1ccc(-n2nnc(C3=NCCCN3)c2-c2ccccc2)cc1`, the GI50 is > 100 µM (inactive) in test [1]; > 100 µM (inactive) in test [2]; 88.7 µM (inactive) in [3]; > 100 µM (inactive) in test [4]; > 100 µM (inactive) in test [5]; > 100 µM (inactive) in [6]. For the same molecule, the GI50 in test [7] is > 100 µM (inactive); in [8], above 100 µM; in [9], > 100 µM (inactive); in [10] it was > 100 µM (inactive); in test [11], > 100 µM (inactive); in test [12], > 100 µM (inactive). For the same molecule, the GI50 in test [13], in [14], in test [15], in test [16], in [17] and in test [18] was > 100 µM (inactive) in each case.

Regarding `COC(=O)c1c/c(=N\NC(=O)CC(=O)Nc2ccc(C)cc2)c2ccccc2o1`, the GI50 in test [1], in [2], in [3], in test [4], in test [5] and in [6] was > 100 µM (inactive) each time. Further, the GI50 in test [7] was > 100 µM (inactive); in [8] it was above 100 µM; in test [9], > 100 µM (inactive); in test [10] it was > 100 µM (inactive); in test [11], > 100 µM (inactive); in [12], > 100 µM (inactive). The GI50 in test [13], in [14], in test [15], in test [16], in test [17] and in test [18] was > 100 µM (inactive) in each case.

As for `CC(C)(C)c1cc(Oc2ccc(C#N)c(C#N)c2)cc(C(C)(C)C)c1`, the GI50 in test [1] was > 100 µM (inactive); in test [2], > 100 µM (inactive); in [3] it was > 100 µM (inactive); in test [4] it was > 100 µM (inactive); in test [5] it was 38.3 µM (inactive); in test [6], > 100 µM (inactive). Also, the GI50 in test [7] was 19.8 µM (inactive); in test [8], 48.3 µM; in test [9], 68.1 µM (inactive); in test [10], > 100 µM (inactive); in test [11], > 100 µM (inactive); in test [12], > 100 µM (inactive). For the same molecule, the GI50 in [13] was 39.9 µM (inactive); in test [14], > 100 µM (inactive); in [15] it was > 100 µM (inactive); in test [16] it was > 100 µM (inactive); in test [17], > 100 µM (inactive); in test [18], > 100 µM (inactive).

For `COc1ccc(-c2cc(-c3ccccc3)c(C#N)c(=O)[nH]2)cc1`, the GI50 in test [1], in test [2], in test [3], in test [4], in test [5] and in test [6] was > 100 µM (inactive) in each case. Moreover, the GI50 was > 100 µM (inactive) in test [7]; above 100 µM in test [8]; > 100 µM (inactive) in [9]; > 100 µM (inactive) in test [10]; > 100 µM (inactive) in test [11]; > 100 µM (inactive) in test [12]. Also, the GI50 in test [13] is > 100 µM (inactive); in test [14], > 100 µM (inactive); in [15] it was 57.7 µM (inactive); in test [16] it was > 100 µM (inactive); in test [17], > 100 µM (inactive); in test [18] it was > 100 µM (inactive).

On to `Cc1ccc(C)c(NC(=O)c2cc(-c3ccc([N+](=O)[O-])cc3)nc(N)n2)c1`, for which the GI50 in [1], in test [2], in test [3], in test [4], in test [5] and in test [6] was > 100 µM (inactive) throughout. Besides, the GI50 in [7] is > 100 µM (inactive); in test [8] it was above 100 µM; in test [9], > 100 µM (inactive); in [10], > 100 µM (inactive); in [11] it was > 100 µM (inactive); in test [12], > 100 µM (inactive). The GI50 in test [13], in test [14], in [15], in test [16], in test [17] and in [18] was > 100 µM (inactive) in each case.

Take `CCNC(=O)C#CC(=O)NCC`: the GI50 was > 42.4 µM (inactive) in test [1]; > 100 µM (inactive) in [2]; > 100 µM (inactive) in [3]; > 100 µM (inactive) in test [4]; > 46.1 µM (inactive) in test [5]; > 100 µM (inactive) in test [6]. In addition, the GI50 was > 41.9 µM (inactive) in test [7]; above 42.6 µM in [8]; 21.9 µM (inactive) in test [9]; > 10 µM (inactive) in test [10]; > 100 µM (inactive) in [11]; > 10 µM (inactive) in test [12]. Moreover, the GI50 is > 100 µM (inactive) in test [13]; > 100 µM (inactive) in test [14]; > 69 µM (inactive) in test [15]; > 100 µM (inactive) in test [16]; > 100 µM (inactive) in test [17]; > 100 µM (inactive) in test [18].

As to `C[C@]12CCC(=O)C=C1CC[C@@H]1[C@@H]2CC[C@]2(C)C(=O)NC(=O)C[C@@H]12`, the GI50 in [1], in test [2], in test [3], in test [4], in [5] and in test [6] was > 100 µM (inactive) in each case. Besides, the GI50 is > 100 µM (inactive) in test [7]; above 100 µM in test [8]; > 100 µM (inactive) in test [9]; > 100 µM (inactive) in test [10]; > 100 µM (inactive) in [11]; > 100 µM (inactive) in test [12]. In addition, the GI50 in test [13], in test [14], in test [15], in [16], in test [17] and in [18] was > 100 µM (inactive) each time.

Turning to `O=C(Nc1ccc(Cl)c(Cl)c1)C(=O)Nn1c(S)nc2ccccc2c1=O`, the GI50 in test [1], in test [2], in test [3], in test [4], in test [5] and in test [6] was > 100 µM (inactive) in each case. Also, the GI50 in [7] is > 100 µM (inactive); in [8] it was above 100 µM; in test [9], > 100 µM (inactive); in test [10], > 100 µM (inactive); in test [11] it was 76.9 µM (inactive); in test [12], > 100 µM (inactive). Besides, the GI50 in test [13], in test [14], in test [15], in [16], in test [17] and in [18] was > 100 µM (inactive) each time.
